Source: patent EP2970215B1, “PYRROLIDINE DERIVATIVES, PHARMACEUTICAL COMPOSITIONS CONTAINING THEM, AND THEIR USE IN THERAPY” (AbbVie Deutschland GmbH & Co. KG, priority 2013, dated 2014)

The compounds below were run against T1, human GlyT1c transporter (Homo sapiens, UniProt P48067) (assay: Radioligand binding assay using recombinant CHO cell membranes expressing human GlyT1). Conditions: radioligand binding to human GlyT1c transporter-expressing membranes.
T1 construct: expressed in transfected cells; host or cells: CHO cells (recombinant; line hGlyT1c_5_CHO is named for the uptake assay)
T1 sequence (P48067 1-706): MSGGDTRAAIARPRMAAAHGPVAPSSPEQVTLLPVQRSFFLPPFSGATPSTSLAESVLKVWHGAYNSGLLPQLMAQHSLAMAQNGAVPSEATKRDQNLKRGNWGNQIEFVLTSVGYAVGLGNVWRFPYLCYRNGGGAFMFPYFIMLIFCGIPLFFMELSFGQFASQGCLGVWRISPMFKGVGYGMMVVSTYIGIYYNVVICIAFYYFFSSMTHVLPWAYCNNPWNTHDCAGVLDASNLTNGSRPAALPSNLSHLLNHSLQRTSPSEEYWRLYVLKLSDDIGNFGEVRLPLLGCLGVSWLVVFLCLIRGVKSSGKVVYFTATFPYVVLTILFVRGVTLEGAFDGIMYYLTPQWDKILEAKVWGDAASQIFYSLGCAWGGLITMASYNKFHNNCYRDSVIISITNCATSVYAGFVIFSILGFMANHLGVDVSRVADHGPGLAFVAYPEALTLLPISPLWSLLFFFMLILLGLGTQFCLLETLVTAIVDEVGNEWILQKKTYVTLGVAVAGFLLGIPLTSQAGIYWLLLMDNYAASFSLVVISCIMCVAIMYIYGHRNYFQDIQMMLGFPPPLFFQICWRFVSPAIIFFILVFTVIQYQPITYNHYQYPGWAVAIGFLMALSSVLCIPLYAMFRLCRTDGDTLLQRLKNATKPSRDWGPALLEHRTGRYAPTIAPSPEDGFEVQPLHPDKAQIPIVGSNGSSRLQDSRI
Excerpt: 2. Radioligand binding assays using recombinant CHO cell membranes expressing human GlyT1: […]

Compound | Ki
CC1CCN(S(=O)(=O)N2CC(Nc3ccc(F)c(F)c3)C(c3ccccc3)C2)CC1 (stereo not drawn) [Example 493, N-(3,4-difluorophenyl)-1-[(4-methylpiperidin-1-yl)sulfonyl]-4-phenylpyrrolidin-3-amine] | ≤ 10 µM
O=S(=O)(c1ccc2c(c1)OCO2)N1CC(Nc2ccc(F)c(F)c2)C(c2ccccc2)C1 (stereo not drawn) [Example 495, 1-(1,3-benzodioxol-5-ylsulfonyl)-N-(3,4-difluorophenyl)-4-phenylpyrrolidin-3-amine] | > 10 µM
O=S(=O)(c1ccc2c(c1)OCCO2)N1CC(Nc2ccc(F)c(F)c2)C(c2ccccc2)C1 (stereo not drawn) [Example 496, N-(3,4-difluorophenyl)-1-(2,3-dihydro-1,4-benzodioxin-6-ylsulfonyl)-4-phenylpyrrolidin-3-amine] | ≥ 10 µM
O=S(=O)(c1cnc2n1CCC2)N1CC(Nc2ccc(F)c(F)c2)C(c2ccccc2)C1 (stereo not drawn) [Example 497, N-(3,4-difluorophenyl)-1-(6,7-dihydro-5H-pyrrolo[1,2-a]imidazol-3-ylsulfonyl)-4-phenylpyrrolidin-3-amine] | ≤ 10 µM
O=S(=O)(CC1CCCCO1)N1CC(Nc2ccc(F)c(F)c2)C(c2ccccc2)C1 (stereo not drawn) [Example 498, N-(3,4-difluorophenyl)-4-phenyl-1-[(tetrahydro-2H-pyran-2-ylmethyl)sulfonyl]pyrrolidin-3-amine] | ≤ 10 µM
CC(=O)Nc1ncc(S(=O)(=O)N2CC(Nc3ccc(F)c(F)c3)C(c3ccccc3)C2)s1 (stereo not drawn) [Example 499, N-[5-({3-[(3,4-difluorophenyl)amino]-4-phenylpyrrolidin-1-yl}sulfonyl)-1,3-thiazol-2-yl]acetamide] | ≥ 10 µM
Cn1ccc2cc(S(=O)(=O)N3CC(Nc4ccc(F)c(F)c4)C(c4ccccc4)C3)ccc21 (stereo not drawn) [Example 503, N-(3,4-difluorophenyl)-1-[(1-methyl-1H-indol-5-yl)sulfonyl]-4-phenylpyrrolidin-3-amine] | ≥ 10 µM
O=c1[nH]c2ccc(S(=O)(=O)N3CC(Nc4ccc(F)c(F)c4)C(c4ccccc4)C3)cc2[nH]1 (stereo not drawn) [Example 506, 5-({3-[(3,4-difluorophenyl)amino]-4-phenylpyrrolidin-1-yl}sulfonyl)-1,3-dihydro-2H-benzimidazol-2-one] | ≤ 10 µM
O=C1Cc2cc(S(=O)(=O)N3CC(Nc4ccc(F)c(F)c4)C(c4ccccc4)C3)ccc2N1 (stereo not drawn) [Example 507, 5-({3-[(3,4-difluorophenyl)amino]-4-phenylpyrrolidin-1-yl}sulfonyl)-1,3-dihydro-2H-indol-2-one] | ≤ 10 µM
O=S(=O)(C1CCCCC1)N1CC(Nc2ccc(F)c(F)c2)C(c2ccccc2)C1 (stereo not drawn) [Example 510, 1-(cyclohexylsulfonyl)-N-(3,4-difluorophenyl)-4-phenylpyrrolidin-3-amine] | ≤ 10 µM
Cc1noc(C)c1S(=O)(=O)N1CC(Nc2ccc(F)c(F)c2)C(c2ccccc2)C1 (stereo not drawn) [Example 513, N-(3,4-difluorophenyl)-1-[(3,5-dimethyl-1,2-oxazol-4-yl)sulfonyl]-4-phenylpyrrolidin-3-amine] | > 10 µM
O=S(=O)(c1cccc2cnccc12)N1CC(Nc2ccc(F)c(F)c2)C(c2ccccc2)C1 (stereo not drawn) [Example 515, N-(3,4-difluorophenyl)-1-(isoquinolin-5-ylsulfonyl)-4-phenylpyrrolidin-3-amine] | ≤ 10 µM
Cc1cc(S(=O)(=O)N2CC(Nc3ccc(F)c(F)c3)C(c3ccccc3)C2)c(C)s1 (stereo not drawn) [Example 517, N-(3,4-difluorophenyl)-1-[(2,5-dimethylthiophen-3-yl)sulfonyl]-4-phenylpyrrolidin-3-amine] | ≤ 10 µM
Cc1ccc(S(=O)(=O)N2CC(Nc3ccc(F)c(F)c3)C(c3ccccc3)C2)s1 (stereo not drawn) [Example 518, N-(3,4-difluorophenyl)-1-[(5-methylthiophen-2-yl)sulfonyl]-4-phenylpyrrolidin-3-amine] | > 10 µM
O=S(=O)(c1ccc2c(c1)CCO2)N1CC(Nc2ccc(F)c(F)c2)C(c2ccccc2)C1 (stereo not drawn) [Example 519, N-(3,4-difluorophenyl)-1-(2,3-dihydro-1-benzofuran-5-ylsulfonyl)-4-phenylpyrrolidin-3-amine] | > 10 µM
Cc1nc(CN[C@H]2CN(S(=O)(=O)c3cn(C)cn3)C[C@@H]2c2ccccc2)cs1 [Example 533, (3R,4S)-1-[(1-methyl-1H-imidazol-4-yl)sulfonyl]-N-[(2-methyl-1,3-thiazol-4-yl)methyl]-4-phenylpyrrolidin-3-amine] | ≤ 10 µM
CCc1oc2ccccc2c1CN[C@H]1CN(S(=O)(=O)c2cn(C)cn2)C[C@@H]1c1ccccc1 [Example 534, (3R,4S)-N-[(2-ethyl-1-benzofuran-3-yl)methyl]-1-[(1-methyl-1H-imidazol-4-yl)sulfonyl]-4-phenylpyrrolidin-3-amine] | ≤ 1 µM
Cn1cnc(S(=O)(=O)N2C[C@H](NCc3cccn4ccnc34)[C@@H](c3ccccc3)C2)c1 [Example 535, (3R,4S)-N-(imidazo[1,2-a]pyridin-8-ylmethyl)-1-[(1-methyl-1H-imidazol-4-yl)sulfonyl]-4-phenylpyrrolidin-3-amine] | ≤ 10 µM
Cc1ccc(CN[C@H]2CN(S(=O)(=O)c3cn(C)cn3)C[C@@H]2c2ccccc2)nc1 [Example 536, (3R,4S)-1-[(1-methyl-1H-imidazol-4-yl)sulfonyl]-N-[(5-methylpyridin-2-yl)methyl]-4-phenylpyrrolidin-3-amine] | ≤ 1 µM
CCOC(=O)N[C@H]1CN(S(=O)(=O)c2cn(C)cn2)C[C@@H]1c1ccccc1 [Example 541, ethyl {(3R,4S)-1-[(1-methyl-1H-imidazol-4-yl)sulfonyl]-4-phenylpyrrolidin-3-yl}carbamate] | ≤ 10 µM
CCCOC(=O)N[C@H]1CN(S(=O)(=O)c2cn(C)cn2)C[C@@H]1c1ccccc1 [Example 542, propyl {(3R,4S)-1-[(1-methyl-1H-imidazol-4-yl)sulfonyl]-4-phenylpyrrolidin-3-yl}carbamate] | ≤ 10 µM

Results, then the compound that gave them:

Ki | Compound
≤ 10 µM | COC(=O)c1csc(S(=O)(=O)N2CC(Nc3ccc(F)c(F)c3)C(c3ccccc3)C2)c1OC (stereo not drawn) [Example 491, methyl 5-({3-[(3,4-difluorophenyl)amino]-4-phenylpyrrolidin-1-yl}sulfonyl)-4-methoxythiophene-3-carboxylate]
≥ 10 µM | CCc1ccc(S(=O)(=O)N2CC(Nc3ccc(F)c(F)c3)C(c3ccccc3)C2)s1 (stereo not drawn) [Example 492, N-(3,4-difluorophenyl)-1-[(5-ethylthiophen-2-yl)sulfonyl]-4-phenylpyrrolidin-3-amine]
≤ 10 µM | O=S(=O)(c1ccc(N2CCOCC2)nc1)N1CC(Nc2ccc(F)c(F)c2)C(c2ccccc2)C1 (stereo not drawn) [Example 494, N-(3,4-difluorophenyl)-1-{[6-(morpholin-4-yl)pyridin-3-yl]sulfonyl}-4-phenylpyrrolidin-3-amine]
≤ 10 µM | O=S(=O)(c1ccc(C(F)(F)F)nc1)N1CC(Nc2ccc(F)c(F)c2)C(c2ccccc2)C1 (stereo not drawn) [Example 500, N-(3,4-difluorophenyl)-4-phenyl-1-{[6-(trifluoromethyl)pyridin-3-yl]sulfonyl}pyrrolidin-3-amino]
≤ 10 µM | O=c1[nH]c2ccc(S(=O)(=O)N3CC(Nc4ccc(F)c(F)c4)C(c4ccccc4)C3)cc2[nH]c1=O (stereo not drawn) [Example 501, 6-({3-[(3,4-difluorophenyl)amino]-4-phenylpyrrolidin-1-yl}sulfonyl)-1,4-dihydroquinoxaline-2,3-dione]
≤ 10 µM | O=C1CCc2cc(S(=O)(=O)N3CC(Nc4ccc(F)c(F)c4)C(c4ccccc4)C3)ccc2N1 (stereo not drawn) [Example 512]
≤ 10 µM | O=c1[nH]c2cc(S(=O)(=O)N3CC(Nc4ccc(F)c(F)c4)C(c4ccccc4)C3)ccc2o1 (stereo not drawn) [Example 514, 5-({3-[(3,4-difluorophenyl)amino]-4-phenylpyrrolidin-1-yl}sulfonyl)-1,3-benzoxazol-2(3H)-one]
≤ 10 µM | O=S(=O)(c1c(Cl)nc2sccn12)N1CC(Nc2ccc(F)c(F)c2)C(c2ccccc2)C1 (stereo not drawn) [Example 520, 1-[(6-chloroimidazo[2,1-b][1,3]thiazol-5-yl)sulfonyl]-N-(3,4-difluorophenyl)-4-phenylpyrrolidin-3-amine]
≤ 10 µM | O=S(=O)(N1CCOCC1)N1CC(Nc2ccc(F)c(F)c2)C(c2ccccc2)C1 (stereo not drawn) [Example 521, N-(3,4-difluorophenyl)-1-(morpholin-4-ylsulfonyl)-4-phenylpyrrolidin-3-amine]
≤ 10 µM | COc1nccc(N[C@H]2CN(S(=O)(=O)c3cn(C)cn3)C[C@@H]2c2ccccc2)n1 [Example 532, 2-methoxy-N-{(3R,4S)-1-[(1-methyl-1H-imidazol-4-yl)sulfonyl]-4-phenylpyrrolidin-3-yl}pyrimidin-4-amine]
≤ 10 µM | Cn1cnc(S(=O)(=O)N2C[C@H](NCc3cnn4ccccc34)[C@@H](c3ccccc3)C2)c1 [Example 537, (3R,4S)-1-[(1-methyl-1H-imidazol-4-yl)sulfonyl]-4-phenyl-N-(pyrazolo[1,5-a]pyridin-3-ylmethyl)pyrrolidin-3-amine]
≤ 10 µM | Cn1cnc(S(=O)(=O)N2CC(NCc3ccc(C(F)(F)F)cc3)C(O)(c3ccccc3)C2)c1 (stereo not drawn) [Example 539, 1-[(1-methyl-1H-imidazol-4-yl)sulfonyl]-3-phenyl-4-{[4-(trifluoromethyl)benzyl]amino}pyrrolidin-3-ol]
